This is an account of results in the supplement of paper PMC10307832.

Compound in test [1]: COC1=C(C=C(C=C1)C2=CC3=NC=CN3C(=N2)NC4=C(C=CC=N4)C(=O)N)OC [BAY61-3606] + CC1(C)CCC(c2ccc(Cl)cc2)=C(CN2CCN(c3ccc(C(=O)NS(=O)(=O)c4ccc(N[C@H](CCN5CCOCC5)CSc5ccccc5)c(S(=O)(=O)C(F)(F)F)c4)cc3)CC2)C1 [Navitoclax] (partner 0.5 µM)
In words: relative viability (nuclei count vs DMSO), 5 days (fraction); higher = more cells survive. The method, boiled down:
(§1)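 Medians of duplicate plates are given as relative viability. That measure is the nuclei count in treated wells divided by the count in vehicle wells. Counts were taken on 4× images of lung cancer cell lines in 1536-well plates, 5 days after pin-tool dosing the day after seeding with one drug alone or a fixed anchor-drug dose plus five library-drug doses (not always all listed) in √10 steps.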

Compound in test [2]: COc1cccc2c1C(=O)c1c(O)c3c(c(O)c1C2=O)C[C@@](O)(C(=O)CO)C[C@@H]3O[C@H]1C[C@H](N)[C@H](O)[C@H](C)O1 [Doxorubicin] + COc1cc2c(Oc3ccc(NC(=O)C4(C(=O)Nc5ccc(F)cc5)CC4)cc3F)ccnc2cc1OCCCN1CCOCC1 [Foretinib] (partner 0.25 µM)
The test is described as above. The method, boiled down:
as §1

Take EPLC-272H: the relative viability stood at 1.1 in test [1] (first compound 0.02 µM); 1 in test [1] (first compound 0.06325 µM); 0.934 in test [1] (first compound 0.2 µM); 1.19 in test [1] (first compound 0.6325 µM); 1.19 in test [1] (first compound 2 µM); 0.899 in test [2] (first compound 0.001 µM). Moreover, the relative viability is 0.67 in test [2] (first compound 0.003162 µM), 0.753 in test [2] (first compound 0.01 µM), 0.517 in test [2] (first compound 0.03162 µM) and 0.78 in test [2] (first compound 0.1 µM).
Turning to NCI-H1975, the relative viability in test [1] (first compound 0.02 µM) came to 1.16; in test [1] (first compound 0.06325 µM) it was 0.937; in test [1] (first compound 0.2 µM), 1.02; in test [1] (first compound 0.6325 µM), 1.04; in test [1] (first compound 2 µM), 0.72; in test [2] (first compound 0.001 µM), 0.998. Also, the relative viability in test [2] (first compound 0.003162 µM) amounted to 1; in test [2] (first compound 0.01 µM) it was 0.879; in test [2] (first compound 0.03162 µM), 0.855; in test [2] (first compound 0.1 µM), 0.444.
In the case of NCI-H322M, the relative viability is 1.38 in test [1] (first compound 0.02 µM); 1.25 in test [1] (first compound 0.06325 µM); 1.22 in test [1] (first compound 0.2 µM); 1.3 in test [1] (first compound 0.6325 µM); 1.33 in test [1] (first compound 2 µM); 0.92 in test [2] (first compound 0.001 µM). The relative viability in test [2] (first compound 0.003162 µM) was found to be 0.898; in test [2] (first compound 0.01 µM), 0.905; in test [2] (first compound 0.03162 µM) it was 0.717; in test [2] (first compound 0.1 µM) it was 0.562.
Turning to NCI-H520, the relative viability in test [1] (first compound 0.02 µM) came to 1.29; in test [1] (first compound 0.06325 µM), 1.11; in test [1] (first compound 0.2 µM), 1.24; in test [1] (first compound 0.6325 µM), 1.1; in test [1] (first compound 2 µM), 1.04; in test [2] (first compound 0.001 µM), 0.831. For the same cell line, the relative viability in test [2] (first compound 0.003162 µM) turned out to be 0.729; in test [2] (first compound 0.01 µM), 0.619; in test [2] (first compound 0.03162 µM) it was 0.673; in test [2] (first compound 0.1 µM) it was 0.548.
Turning to NCI-H1395, the relative viability came to 1.26 in test [1] (first compound 0.02 µM); 1.04 in test [1] (first compound 0.06325 µM); 1.49 in test [1] (first compound 0.2 µM); 1.35 in test [1] (first compound 0.6325 µM); 0.966 in test [1] (first compound 2 µM); 0.949 in test [2] (first compound 0.001 µM). The relative viability in test [2] (first compound 0.003162 µM) worked out at 1.05; in test [2] (first compound 0.01 µM), 0.953; in test [2] (first compound 0.03162 µM) it was 0.892; in test [2] (first compound 0.1 µM) it was 0.92.
With LC-2-ad, the relative viability in test [1] (first compound 0.02 µM) was 0.471; in test [1] (first compound 0.06325 µM), 0.521; in test [1] (first compound 0.2 µM) it was 0.466; in test [1] (first compound 0.6325 µM), 0.468; in test [1] (first compound 2 µM), 0.26; in test [2] (first compound 0.001 µM), 0.862. The relative viability was 0.778 in test [2] (first compound 0.003162 µM), 0.714 in test [2] (first compound 0.01 µM), 0.392 in test [2] (first compound 0.03162 µM) and 0.321 in test [2] (first compound 0.1 µM).
On to SK-MES-1, for which the relative viability was 1.32 in test [1] (first compound 0.02 µM); 1.3 in test [1] (first compound 0.06325 µM); 1.24 in test [1] (first compound 0.2 µM); 1.39 in test [1] (first compound 0.6325 µM); 1.09 in test [1] (first compound 2 µM); 1 in test [2] (first compound 0.001 µM). The relative viability in test [2] (first compound 0.003162 µM) is 0.843; in test [2] (first compound 0.01 µM), 0.923; in test [2] (first compound 0.03162 µM), 0.818; in test [2] (first compound 0.1 µM) it was 0.766.
Take SW 1573: the relative viability in test [1] (first compound 0.02 µM) was determined as 0.84; in test [1] (first compound 0.06325 µM), 0.918; in test [1] (first compound 0.2 µM), 0.832; in test [1] (first compound 0.6325 µM), 0.97; in test [1] (first compound 2 µM) it was 0.683; in test [2] (first compound 0.001 µM) it was 0.921. Further, the relative viability in test [2] (first compound 0.003162 µM) stood at 1.19; in test [2] (first compound 0.01 µM), 0.829; in test [2] (first compound 0.03162 µM), 0.451; in test [2] (first compound 0.1 µM) it was 0.503.
For the cell line CAL-12T, the relative viability in test [1] (first compound 0.02 µM) is 1.23; in test [1] (first compound 0.06325 µM), 1.42; in test [1] (first compound 0.2 µM), 1.2; in test [1] (first compound 0.6325 µM), 1.27; in test [1] (first compound 2 µM), 0.67; in test [2] (first compound 0.001 µM), 1.03. Also, the relative viability in test [2] (first compound 0.003162 µM) is 1.07; in test [2] (first compound 0.01 µM) it was 1.04; in test [2] (first compound 0.03162 µM), 0.568; in test [2] (first compound 0.1 µM) it was 0.35.
EBC-1: the relative viability was determined as 0.421 in test [1] (first compound 0.02 µM); 0.362 in test [1] (first compound 0.06325 µM); 0.525 in test [1] (first compound 0.2 µM); 0.504 in test [1] (first compound 0.6325 µM); 0.281 in test [1] (first compound 2 µM); 0.114 in test [2] (first compound 0.001 µM). Besides, the relative viability amounted to 0.1 in test [2] (first compound 0.003162 µM), 0.0884 in test [2] (first compound 0.01 µM), 0.0952 in test [2] (first compound 0.03162 µM) and 0.0885 in test [2] (first compound 0.1 µM).
